Results taken from patent US9796700B2 (Celgene CAR LLC, priority 2013, dated 2017).
Where two headings read alike, the source gives them in different places.

Key:
MEK1 activated ERK1 = MEK1 activated ERK1 (Homo sapiens (Human), UniProt P27361); assay: Omnia continuous-read kinase assay for potency against MEK1 activated ERK1; format: biochemical
Summary of the method: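 Apparent IC50 came from initial reaction slopes (RFU vs time) plotted against log inhibitor with a variable-slope fit. Reactions were started with ERK1 (4 nM final) added to 50 μM ATP, roughly at its appKM, and 10 μM Sox-conjugated ST17 peptide in 20 mM Tris pH 7.5, 5 mM MgCl2. Fluorescence was monitored every 71 seconds.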

Erk1 = Erk1 (Homo sapiens (Human), UniProt P27361); assay: Protein Mass Modification Assay (intact protein MALDI); format: binding
Erk1, sequence (P27361 whole entry, looked up): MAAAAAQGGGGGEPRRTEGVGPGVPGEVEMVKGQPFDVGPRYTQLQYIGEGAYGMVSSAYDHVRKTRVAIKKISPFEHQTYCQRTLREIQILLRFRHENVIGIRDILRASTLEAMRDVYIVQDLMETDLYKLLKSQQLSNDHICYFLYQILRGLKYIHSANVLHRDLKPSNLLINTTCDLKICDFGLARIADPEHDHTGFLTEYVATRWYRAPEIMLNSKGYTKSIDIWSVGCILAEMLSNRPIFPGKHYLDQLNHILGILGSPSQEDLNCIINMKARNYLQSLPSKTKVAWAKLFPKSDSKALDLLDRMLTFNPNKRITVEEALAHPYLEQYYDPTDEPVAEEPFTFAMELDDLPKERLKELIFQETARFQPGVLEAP
Summary of the method: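 Human Erk1 was incubated 60 min at room temperature with a 10-fold molar excess of compound, then analysed as intact protein by MALDI with sinapinic acid matrix. The centroid mass shift versus untreated protein was divided by compound molecular weight to give percent modified protein.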

[1] = MEK1 activated ERK1, WT, ATP at KM

MEK1 activated ERK1, sequence (P27361 whole entry): as the sequence (P27361 whole entry, looked up) above

Row | Compound | IC50 (MEK1 activated ERK1; [1]) [nM] | ERK1 Mass Mod (%) (Erk1) | IC50 (MEK1 activated ERK1; read-out: ERK1 Omnia WT ATP KM IC50) [nM]
1 | C=CC(=O)Nc1cc(OC)ccc1Nc1nc(Nc2ccc(N3CCC[C@H]3CO)cc2OC)ncc1Cl [Compound I-159, (S)—N-(2-((5-chloro-2-((4-(2-(hydroxymethyl)pyrrolidin-1-yl)-2-methoxyphenyl)amino)pyrimidin-4-yl)amino)-5-methoxyphenyl)acrylamide] | > 1000 | F (provided a mass modification of 31-69%) | 
2 | C=CC(=O)Nc1cc(C)ccc1Nc1nc(NC2CCC(=O)CC2)ncc1C(F)(F)F [Compound I-38, N-(5-Methyl-2-((2-((4-oxocyclohexyl)amino)-5-(trifluoromethyl)pyrimidin-4-yl)amino)phenyl)acrylamide] | < 100 | E (provided a mass modification of ≧70%) | 
3 | C=CC(=O)Nc1ccccc1Nc1nc(Nc2ccc(N3CCN(C(C)=O)CC3)cc2OC)ncc1F [Compound I-153, N-(2-((2-((4-(4-acetylpiperazin-1-yl)-2-methoxyphenyl)amino)-5-fluoropyrimidin-4-yl)amino)phenyl)acrylamide] | > 1000 | F (provided a mass modification of 31-69%) | 
4 | C=C(C)S(=O)(=O)Nc1cc(C)ccc1Nc1nc(N[C@H]2CCCN(C(=O)CO)C2)ncc1C(F)(F)F [Compound I-47, (S)—N-(2-((2-((1-(2-Hydroxyacetyl)piperidin-3-yl)amino)-5-(trifluoromethyl)pyrimidin-4-yl)amino)-5-methylphenyl)prop-1-ene-2-sulfonamide] | < 100 | G (proived a mass modification ≦30%) | 
5 | C=CC(=O)Nc1ccccc1Nc1nc(Nc2cc(C(N)=O)ccc2C#N)ncc1C(F)(F)F [Compound I-71, 3-((4-((2-Acrylamidophenyl)amino)-5-(trifluoromethyl)pyrimidin-2-yl)amino)-4-cyanobenzamide] | < 100 | E (provided a mass modification of ≧70%) | 
6 | C#CCOc1cc(C)c(Nc2ncc(C(F)(F)F)c(Nc3ccc(C)cc3NC(=O)C=C)n2)cc1C(N)=O [Compound I-362, 5-((4-((2-acrylamido-4-methylphenyl)amino)-5-(trifluoromethyl)pyrimidin-2-yl)amino)-4-methyl-2-(prop-2-yn-1-yloxy)benzamide] | > 1000 | E (provided a mass modification of ≧70%) | 
7 | C=CC(=O)Nc1ccccc1Nc1nc(NC2CCN(S(C)(=O)=O)CC2)ncc1C(F)(F)F [Compound I-13, N-(2-((2-((1-(methylsulfonyl)piperidin-4-yl)amino)-5-(trifluoromethyl)pyrimidin-4-yl)amino)phenyl)acrylamide] | < 100 | E (provided a mass modification of ≧70%) | 
8 | C=CC(=O)Nc1cc(OC)ccc1Nc1nc(Nc2cc(C(N)=O)ccc2C)ncc1Cl [Compound I-237, 3-((4-((2-acrylamido-4-methoxyphenyl)amino)-5-chloropyrimidin-2-yl)amino)-4-methylbenzamide] | < 100 | E (provided a mass modification of ≧70%) | 
9 | C=CC(=O)Nc1cc(C)ccc1Nc1nc(N[C@H]2CCCN(C(C)=O)C2)ncc1Cl [Compound I-139, (S)—N-(2-((2-((1-acetylpiperidin-3-yl)amino)-5-chloropyrimidin-4-yl)amino)-5-methylphenyl)acrylamide] |  | E (key: E: provided a mass modification of ≧70%; F: provided a mass modification of 31-69%; G: proived a mass modification ≦30%) | < 100
10 | C=CC(=O)Nc1ccccc1Nc1nc(N[C@H]2CCC[C@@H](C(N)=O)C2)ncc1Cl [Compound I-120, (1R,3S)-3-((4-((2-acrylamidophenyl)amino)-5-chloropyrimidin-2-yl)amino)cyclohexanecarboxamide] | < 100 | E (provided a mass modification of ≧70%) | 
11 | CC#CC(=O)Nc1ccccc1Nc1nc(N[C@H]2CCCN(C(=O)CO)C2)ncc1C(F)(F)F [Compound I-29, (S)—N-(2-((2-((1-(2-Hydroxyacetyl)piperidin-3-yl)amino)-5-(trifluoromethyl)pyrimidin-4-yl)amino)phenyl)but-2-ynamide] | > 1000 | G (proived a mass modification ≦30%) | 
